According to ChEMBL document CHEMBL4342479, “Reactive Oxygen Species (ROS)-Activatable Prodrug for Selective Activation of ATF6 after Ischemia/Reperfusion Injury” (ACS Med Chem Lett, 2020):
Activity calls are given as the source filed them. The calls are words filed in the database; no cut-off is given here.

Assays:
[1] = molecular target: T1, Cyclic AMP-dependent transcription factor ATF-6 alpha (Rattus norvegicus) (UniProt G3V909); test: Activation of ATF6 in NRVM isolated from Sprague-Dawley rat assessed as increase in catalase expression at 10 uM using compound pre-activated with hydrogen peroxide for 8 hrs prior to NRVM treatment and measured after 16 hrs by SYBR green dye-based qRT-PCR analysis
T1 sequence (whole entry): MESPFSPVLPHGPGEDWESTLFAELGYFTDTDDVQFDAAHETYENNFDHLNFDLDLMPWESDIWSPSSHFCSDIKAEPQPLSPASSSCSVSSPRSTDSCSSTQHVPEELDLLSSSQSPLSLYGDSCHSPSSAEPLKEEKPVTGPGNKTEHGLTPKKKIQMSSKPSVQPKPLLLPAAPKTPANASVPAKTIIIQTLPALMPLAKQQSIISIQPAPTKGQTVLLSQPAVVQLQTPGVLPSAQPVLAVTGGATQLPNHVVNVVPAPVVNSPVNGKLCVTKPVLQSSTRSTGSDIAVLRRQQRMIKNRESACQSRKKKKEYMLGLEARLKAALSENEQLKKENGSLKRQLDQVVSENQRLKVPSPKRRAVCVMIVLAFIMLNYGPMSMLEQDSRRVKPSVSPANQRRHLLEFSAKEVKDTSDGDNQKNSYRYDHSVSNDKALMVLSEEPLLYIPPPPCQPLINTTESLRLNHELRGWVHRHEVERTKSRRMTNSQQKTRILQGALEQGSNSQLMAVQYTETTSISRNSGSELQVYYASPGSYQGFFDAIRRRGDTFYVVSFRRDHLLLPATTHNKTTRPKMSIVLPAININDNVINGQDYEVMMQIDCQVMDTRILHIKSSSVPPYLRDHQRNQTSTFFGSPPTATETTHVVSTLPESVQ

[2] = molecular target: T1, Cyclic AMP-dependent transcription factor ATF-6 alpha (Rattus norvegicus); test: Activation of ATF6 in NRVM isolated from Sprague-Dawley rat assessed as increase in GRP78 expression at 10 uM using compound pre-activated with hydrogen peroxide for 8 hrs prior to NRVM treatment and measured after 16 hrs by SYBR green dye-based qRT-PCR analysis
Cytochrome P450 1A2 [3] = molecular target: T2, Cytochrome P450 1A2 (Homo sapiens, UniProt P05177); test: Drug metabolism assessed as recombinant CYP1A2 (unknown origin)-mediated oxidation incubated for 24 hrs in presence of NADP+ by LC-MS analysis; type: ADME; conditions: recombinant enzyme
T2 sequence (P05177 whole entry): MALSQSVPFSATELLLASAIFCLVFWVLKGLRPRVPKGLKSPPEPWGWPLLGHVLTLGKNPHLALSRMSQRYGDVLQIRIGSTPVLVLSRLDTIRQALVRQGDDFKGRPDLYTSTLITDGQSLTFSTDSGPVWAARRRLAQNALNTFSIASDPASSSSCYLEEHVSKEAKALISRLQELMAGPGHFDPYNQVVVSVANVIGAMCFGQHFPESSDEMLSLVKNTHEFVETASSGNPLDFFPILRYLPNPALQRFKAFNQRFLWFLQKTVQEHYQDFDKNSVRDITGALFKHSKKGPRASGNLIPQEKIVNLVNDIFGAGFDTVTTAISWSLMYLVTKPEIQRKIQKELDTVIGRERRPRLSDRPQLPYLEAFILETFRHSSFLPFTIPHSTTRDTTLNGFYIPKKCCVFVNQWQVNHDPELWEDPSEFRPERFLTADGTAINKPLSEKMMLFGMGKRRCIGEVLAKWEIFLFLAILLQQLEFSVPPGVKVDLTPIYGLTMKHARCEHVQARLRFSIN

[4] = Drug metabolism assessed as intact compound incubated for 24 hrs in presence of NADP+ and absence of recombinant CYP1A2 by LC-MS analysis
[5] = molecular target: T1, Cyclic AMP-dependent transcription factor ATF-6 alpha (Rattus norvegicus); test: Activation of ATF6 in NRVM isolated from Sprague-Dawley rat assessed as increase in GRP78 expression at 10 uM measured after 16 hrs by SYBR green dye-based qRT-PCR analysis
[6] = molecular target: T1, Cyclic AMP-dependent transcription factor ATF-6 alpha (Rattus norvegicus); test: Activation of ATF6 in NRVM isolated from Sprague-Dawley rat assessed as increase in catalase expression at 10 uM measured after 16 hrs by SYBR green dye-based qRT-PCR analysis
Rattus norvegicus = species on record: Rattus norvegicus; test: Cytoprotection against hydrogen peroxide-induced toxicity in NRVM isolated from Sprague-Dawley rat assessed as increase in cell viability at 10 uM pretreated for 24 hrs followed by hydrogen peroxide challenge measured after 8 hrs by MTT assay; type: functional
[7] = molecular target: T1, Cyclic AMP-dependent transcription factor ATF-6 alpha (Rattus norvegicus); test: Activation of ATF6 in simulated-ischemia-reperfusion NRVM isolated from Sprague-Dawley rat assessed as increase in cell viability by measuring media LDH content at 10 uM followed by ischemia simulation for 8 hrs and subsequent reperfusion and compound treatment for 24 hrs by LDH assay
[8] = molecular target: T1, Cyclic AMP-dependent transcription factor ATF-6 alpha (Rattus norvegicus); test: Activation of ATF6 in simulated-ischemia-reperfusion NRVM isolated from Sprague-Dawley rat assessed as increase in cell viability by measuring media LDH content at 10 uM followed by ischemia simulation for 8 hrs and subsequent reperfusion and compound treatment for 24 hrs under normoxia condition by calcein-AM green dye based fluorescence microscopy
[9] = Stability of compound in HBS buffer at 1 mM at pH 7.3 and 37 degree C by HPLC or LC-MS analysis; type: physicochemical; conditions: pH 7.3, 1000 µM
[10] = Drug degradation in HBS buffer assessed as half life at 1 mM at pH 7.3 and 37 degree C by HPLC or LC-MS analysis; type: physicochemical
Cytochrome P450 1A2 [11] = molecular target: T2, Cytochrome P450 1A2; test: Substrate activity at recombinant CYP1A2 (unknown origin) assessed as [4-[[4-methyl-2-(3-phenylpropanoylamino)phenoxy]methyl]phenyl]boronic acid formation incubated for 24 hrs in presence of NADP+ by LC-MS analysis; type: ADME; conditions: recombinant enzyme

Activity [1] | Activity [2] | Drug metabolism (Cytochrome P450 1A2 [3]) | Activity [5] | Activity [6] | Stability [9] | half-life at 1000 µM [10] | Drug metabolism (Cytochrome P450 1A2 [11]) | SMILES | Drug metabolism [4] | Activity (Rattus norvegicus) | Activity [7] | Activity [8]
inactive | inactive | – | – | – | – | – | – | Cc1ccc(OCCc2ccc(B3OC(C)(C)C(C)(C)O3)cc2)c(NC(=O)CCc2ccccc2)c1 | – | – | – | –
– | – | Metabolite_Detected | Active | Active | – | – | – | Cc1ccc(O)c(NC(=O)CCc2ccccc2)c1 | Metabolite not detected | Active | Active | Active
Active | Active | – | – | – | Stable | 25.8 days | Metabolite_Notdetected | Cc1ccc(OCc2ccc(B3OC(C)(C)C(C)(C)O3)cc2)c(NC(=O)CCc2ccccc2)c1 | – | Active | Active | Active
